Laboratory results reported in patent US10149644B2, “Curcumin derivatives for amyloid-β plaque imaging” (The General Hospital Corporation, priority 2008, dated 2018).
Where two headings read alike, the source gives them in different places.

How the values were obtained:
[1] = biological target: T1, Aβ40 aggregates (Homo sapiens, UniProt P05067); test: In vitro Aβ aggregates binding constant measurement; details: Aβ40 aggregates in PBS, fluorescence intensity, nonlinear one-site regression; read-out: Binding constant (Kd) towards Aβ aggregates
T1 construct: Synthetic amyloid-b protein (1-40) was purchased from rPeptide; purchased rPeptide (Bogart, Ga.)
Protocol: […] The Kd binding curve was generated by software Prism 3.0 with nonlinear one-site binding regression.
Binding constant (Kd) of CRANAD-2 towards Aβ aggregates was measured by fluorescence intensity (F.I.) with various concentrations of the prob.

[2] = test system: senile plaques; test: Ex vivo histological correlation; type: in vivo, mice; details: 10 mg/kg i.v.
Protocol: 19 month-old mouse was injected CRANAD-2 (10.0 mg/kg), and was sacrified after perfusion with 4% formaldehyde. The brain was taken and embedded in OCT. For histology, the brain was sliced into 25μ slices, and co-stained with thioflavin S as described above. To obtain ex vivo confirmation of the probe binding, mice at different ages were i.v injected with 10 mg/kg of CRANAD-2 probe, perfused and scarified at 1 h after injection.

[3] = biological target: T1, Aβ40 aggregates; details: reported values used for comparison; read-out: Kd towards Aβ aggregates (literature); cited from earlier work
[4] = test system: Aβ plaques; test: AD tissue staining of APP-PS1 brain sections; details: 25 micron sections, 12-month old APP-PS1 mice
Text: The inventors conducted tissue staining with 25 micron brain sections from 12-month old APP-PS1 mice by all the compounds listed in FIG. 12.

[5] = biological target: T1, Aβ40 aggregates; test: Aβ aggregates detection in solution by fluorescence spectrum; type: binding; details: 250 nM compound, 250 nM Aβ40 aggregates, PBS
Protocol: They then incubated 250 nM of the compounds with 250 nM of Aβ40 aggregates (calculation based on monomer) in PBS for one minute, and then measured the fluorescence spectra of the solutions.

[6] = Fluorescence emission properties of the probes; type: physicochemical; details: probe alone, methanol (FIG. 2)
Protocol: Reagents used for synthesis were purchased from Aldrich without further purification. Column chromatography was performed on silica gel (SiliCycle Inc., 60 Å, […]) slurry packed into glass columns. Thioflavin S was purchased from Aldrich. Synthetic amyloid-b protein (1-40) was purchased from rPeptide (Bogart, Ga., 30622) and aggregates for in vitro studies were generated followed the reported procedure. BSA was purchased from Sigma, and human serum was obtained from Invitrogen (type AB). ^1H and ^13C NMR spectra were recorded at 400 MHz and 100 MHz respectively, and are reported in ppm downfield from tetramethylsilane. Fluorescence studies were carried out with F-4500 Fluorescense Spectrophotometer. Fluorescence quantum yields were determined using aqueous solution of Cy5.5-maleimide as a standard (y=0.23). High resolution mass spectra were obtained at the Harvard University, Department of Chemistry Instrumentation Facility. Transgenic Tg2576 mice {45} and littermates were purchased from Taconic Farm, Balb/c mice for BBB penetrating test were obtained from Jackson Laboratory, and the experiment procedure was approved by Massachusetts General Hospital. In vivo imaging was recorded on Kodak Imaging Station 2000MM.
Furthermore, by comparing the fluorescence intensity in methanol, the quantum yield of CRANAD-2 was significant higher than that of curcumin (FIG. 2). […] Additionally, these modifications produced a large stokes shift and improved quantum yield of CRANAD-2. The synthesized compound produced the longest emission and the largest stokes shift among the existing probes for senile plaque detection {3}.

[7] = cited from earlier work

T1 sequence (P05067 672-711 limits assumed): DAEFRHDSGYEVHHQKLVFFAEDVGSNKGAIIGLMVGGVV

For COc1cc(C=CC2=CC(C=Cc3ccc(O)c(OC)c3)=[O+][B-](F)(F)O2)ccc1O [CRANAD-1, 1,7-Bis-(4-hydroxy-3-methoxyphenyl)-hepta-1,6-diene-2′,2′-difluoro-1′,3′-dioxaboryl-3,5-dione], the Kd [1] was 1 nM, the “Labelling of senile plaques ex vivo after i.v. injection” value ([2]; 11-month old transgenic and wild-type mice, thioflavin S staining) was “could not find obvious senile plaques” and the “Labelling of senile plaques ex vivo after i.v. injection” value ([2]; 19-month old transgenic mice) was “can penetrate BBB and label senile plaques in vivo”.
For N#CC(C#N)=Cc1ccc(-c2ccc(-c3ccc(O)cc3)s2)s1 [NIAD-4], the Kd [3] is given as 10 nM.
For [11CH3]Nc1ccc(-c2nc3ccc(O)cc3s2)cc1 [PiB], the “Staining of plaques in brain sections” value [4] was “stained the plaques brightly”.
In the case of Cc1ccc2c(c1)sc(-c1ccc(N(C)C)cc1)[n+]2C.[Cl-] [Thioflavin T], the “Staining of plaques in brain sections” value [4] is reported as “stained the plaques brightly”, the “FI amplification with Aβ40 aggregates” value [5] is reported as 72 fold and the “Fluorescence intensity change with Aβ40 aggregates” value ([5]; one minute) is reported as “intensity increases”.
In the case of COc1cc(C=CC(=O)CC(=O)C=Cc2ccc(O)c(OC)c2)ccc1O [curcumin, 1,7-bis(4-hydroxy-3-methoxyphenyl)-1,6-heptadiene-3,5-dione], the “Staining of plaques in brain sections” value [4] is reported as “stained the plaques brightly”, the “Fluorescence intensity change with Aβ40 aggregates” value ([5]; one minute) is reported as “intensity increases” and the “Wavelength shift with Aβ40 aggregates” value ([5]; one minute) is reported as “wavelength blue-shifts”. For the same compound, the Stokes shift [6] was 50 nm, the “λmax(em)” value [6] was 560 nm and the “λmax(ex)” value [6] was 510 nm. The “log P (literature)” value [7] was less than 2.
